Experiments:
Beta-secretase 1 [1] = target: T1, Beta-secretase 1 (Homo sapiens, UniProt P56817); assay: Inhibition of recombinant human BACE1 by FRET analysis
Beta-secretase 1 [2] = target: T1, Beta-secretase 1; assay: Inhibition of recombinant human BACE1 at 0.2 uM by FRET analysis
Beta-secretase 1 [3] = target: T1, Beta-secretase 1; assay: Inhibition of recombinant human BACE1 at 2 uM by FRET analysis
Renin = target: T2, Renin (Homo sapiens, UniProt P00797); assay: Inhibition of human renin
T2 sequence (P00797 whole entry): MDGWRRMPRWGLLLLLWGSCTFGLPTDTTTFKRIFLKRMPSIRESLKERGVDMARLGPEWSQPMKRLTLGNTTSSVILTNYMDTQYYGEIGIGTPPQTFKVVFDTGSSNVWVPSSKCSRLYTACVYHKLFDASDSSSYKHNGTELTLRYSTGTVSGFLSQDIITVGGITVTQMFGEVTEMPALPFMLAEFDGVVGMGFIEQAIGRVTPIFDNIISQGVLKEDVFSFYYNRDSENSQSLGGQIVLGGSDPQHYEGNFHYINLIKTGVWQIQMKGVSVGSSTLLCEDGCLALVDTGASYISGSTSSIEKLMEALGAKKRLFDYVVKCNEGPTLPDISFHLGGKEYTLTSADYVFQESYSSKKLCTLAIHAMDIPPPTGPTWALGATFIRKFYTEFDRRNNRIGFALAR

T1 sequence (P56817 whole entry): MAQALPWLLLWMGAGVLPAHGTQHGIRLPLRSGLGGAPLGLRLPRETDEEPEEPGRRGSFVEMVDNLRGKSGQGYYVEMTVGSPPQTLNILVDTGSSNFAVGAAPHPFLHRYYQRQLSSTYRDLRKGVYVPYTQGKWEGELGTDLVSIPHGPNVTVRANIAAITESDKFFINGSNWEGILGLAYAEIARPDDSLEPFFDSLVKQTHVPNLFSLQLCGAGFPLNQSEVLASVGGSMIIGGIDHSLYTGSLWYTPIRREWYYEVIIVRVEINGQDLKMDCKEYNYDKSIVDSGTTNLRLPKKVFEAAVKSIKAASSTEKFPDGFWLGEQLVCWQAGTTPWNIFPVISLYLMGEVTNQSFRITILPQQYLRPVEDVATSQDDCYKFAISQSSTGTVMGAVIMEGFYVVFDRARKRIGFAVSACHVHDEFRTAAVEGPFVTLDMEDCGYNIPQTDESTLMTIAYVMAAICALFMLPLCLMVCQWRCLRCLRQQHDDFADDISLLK

| IC50 (Beta-secretase 1 [1]) | inhibition (Beta-secretase 1 [2]) | inhibition (Beta-secretase 1 [3]) | IC50 (Renin) | SMILES |
| --- | --- | --- | --- | --- |
| 26 nM | 79% | 97% |  | C[C@@H](NC(=O)c1cc(C(=O)N[C@@H](Cc2ccccc2)[C@@H](O)C(=O)Nc2nnc(Br)s2)cc(N(C)S(C)(=O)=O)c1)c1ccccc1 |
|  |  | 29% |  | C[C@@H](NC(=O)c1cc(C(=O)N[C@@H](Cc2ccccc2)[C@@H](O)C(=O)Nc2nc3ccccc3s2)cc(N(C)S(C)(=O)=O)c1)c1ccccc1 |
|  | 50% | 90% |  | Cc1nnc(NC(=O)[C@H](O)[C@H](Cc2ccccc2)NC(=O)c2cc(C(=O)N[C@H](C)c3ccccc3)cc(N(C)S(C)(=O)=O)c2)s1 |
|  |  | 49% |  | C[C@@H](NC(=O)c1cc(C(=O)N[C@@H](Cc2ccccc2)[C@@H](O)C(=O)Nc2nnc(-c3ccncc3)s2)cc(N(C)S(C)(=O)=O)c1)c1ccccc1 |
|  |  | 30% |  | COC(=O)c1csc(NC(=O)[C@H](O)[C@H](Cc2ccccc2)NC(=O)c2cc(C(=O)N[C@H](C)c3ccccc3)cc(N(C)S(C)(=O)=O)c2)n1 |
|  | 73% | 96% |  | C[C@@H](NC(=O)c1cc(C(=O)N[C@@H](Cc2ccccc2)[C@@H](O)C(=O)Nc2ncc([N+](=O)[O-])s2)cc(N(C)S(C)(=O)=O)c1)c1ccccc1 |
|  | 39% | 83% |  | C[C@@H](NC(=O)c1cc(C(=O)N[C@@H](Cc2ccccc2)[C@@H](O)C(=O)Nc2nncs2)cc(N(C)S(C)(=O)=O)c1)c1ccccc1 |
|  |  | 38% |  | C[C@@H](NC(=O)c1cc(C(=O)N[C@@H](Cc2ccccc2)[C@H](O)C(=O)Nc2nncs2)cc(N(C)S(C)(=O)=O)c1)c1ccccc1 |
|  | 43% | 84% |  | CSc1nnc(NC(=O)[C@H](O)[C@H](Cc2ccccc2)NC(=O)c2cc(C(=O)N[C@H](C)c3ccccc3)cc(N(C)S(C)(=O)=O)c2)s1 |
|  |  | 5% |  | C[C@@H](NC(=O)c1cc(C(=O)N[C@@H](Cc2ccccc2)[C@H](O)C(=O)Nc2nc3ccccc3s2)cc(N(C)S(C)(=O)=O)c1)c1ccccc1 |
|  | 56% | 87% |  | COC(=O)c1cnc(NC(=O)[C@H](O)[C@H](Cc2ccccc2)NC(=O)c2cc(C(=O)N[C@H](C)c3ccccc3)cc(N(C)S(C)(=O)=O)c2)s1 |
|  |  | 19% |  | C[C@@H](NC(=O)c1cc(C(=O)N[C@@H](Cc2ccccc2)[C@H](O)C(=O)Nc2nccs2)cc(N(C)S(C)(=O)=O)c1)c1ccccc1 |
|  |  | 78% |  | C[C@@H](NC(=O)c1cc(C(=O)N[C@@H](Cc2ccccc2)[C@@H](O)C(=O)Nc2ncc(Br)s2)cc(N(C)S(C)(=O)=O)c1)c1ccccc1 |
|  | 75% | 96% |  | C[C@@H](NC(=O)c1cc(C(=O)N[C@@H](Cc2ccccc2)[C@@H](O)C(=O)Nc2nnc(C(F)(F)F)s2)cc(N(C)S(C)(=O)=O)c1)c1ccccc1 |
|  |  | 43% |  | C[C@@H](NC(=O)c1cc(C(=O)N[C@@H](Cc2ccccc2)[C@@H](O)C(=O)Nc2nnc(-c3ccccc3)s2)cc(N(C)S(C)(=O)=O)c1)c1ccccc1 |
|  | 51% | 88% |  | CCc1nnc(NC(=O)[C@H](O)[C@H](Cc2ccccc2)NC(=O)c2cc(C(=O)N[C@H](C)c3ccccc3)cc(N(C)S(C)(=O)=O)c2)s1 |
|  | 45% | 86% |  | CCSc1nnc(NC(=O)[C@H](O)[C@H](Cc2ccccc2)NC(=O)c2cc(C(=O)N[C@H](C)c3ccccc3)cc(N(C)S(C)(=O)=O)c2)s1 |
|  |  | 48% |  | C[C@@H](NC(=O)c1cc(C(=O)N[C@@H](Cc2ccccc2)[C@@H](O)C(=O)Nc2nccs2)cc(N(C)S(C)(=O)=O)c1)c1ccccc1 |
|  |  |  | > 50000 nM | C[C@@H](NC(=O)c1cc(C(=O)N[C@@H](Cc2ccccc2)[C@H](O)CNC2CC2)cc(N(C)S(C)(=O)=O)c1)c1ccccc1 |
|  |  | 48% |  | C[C@@H](NC(=O)c1cc(C(=O)N[C@@H](Cc2ccccc2)[C@@H](O)C(=O)Nc2nnc(C(C)(C)C)s2)cc(N(C)S(C)(=O)=O)c1)c1ccccc1 |
|  |  | 58% |  | Cc1nnc(NC(=O)[C@@H](O)[C@H](Cc2ccccc2)NC(=O)c2cc(C(=O)N[C@H](C)c3ccccc3)cc(N(C)S(C)(=O)=O)c2)s1 |
